Measurements reported in ChEMBL document CHEMBL1201862, “PubChem BioAssay data set” (2004).
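96-well plates; 48 h exposure; 5 concentrations. Endpoints by linear interpolation between flanking doses. Not reached: highest tested concentration assigned. GI50 marks 50% less growth.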 Calls of active or inactive are those of the source. Cut-off read from the data, not from the text of the source: active = GI50 up to about 1.1 µM and inactive = higher.

Key:
Assay in all cases: DTP human tumour cell line panel, 48 h
RPMI-8226 = test system: RPMI-8226
SNB-19 = test system: SNB-19
HCT-116 = test system: HCT-116
NCI-H460 = test system: NCI-H460
SK-MEL-28 = test system: SK-MEL-28
PC-3 = test system: PC-3
OVCAR-3 = test system: OVCAR-3
RXF 393 = test system: RXF 393
UACC-257 = test system: UACC-257
HL-60 = test system: HL-60
KM12 = test system: KM12
SN12C = test system: SN12C
EKVX = test system: EKVX
M14 = test system: M14
MOLT-4 = test system: MOLT-4
SR = test system: SR
HCT-15 = test system: HCT-15
NCI-H23 = test system: NCI-H23
SF-539 = test system: SF-539
CCRF-CEM = test system: CCRF-CEM

COP(=O)(OC)C(O)CC(C)C (centres undefined)
GI50 (RPMI-8226): > 100 µM (inactive)
GI50 (SNB-19): > 100 µM (inactive)
GI50 (HCT-116): > 100 µM (inactive)
GI50 (NCI-H460): > 100 µM (inactive)
GI50 (SK-MEL-28): > 100 µM (inactive)
GI50 (PC-3): > 100 µM (inactive)
GI50 (OVCAR-3): > 100 µM (inactive)
GI50 (RXF 393): > 100 µM (inactive)
GI50 (UACC-257): > 100 µM (inactive)
GI50 (HL-60): > 100 µM (inactive)
GI50 (KM12): > 100 µM (inactive)
GI50 (SN12C): > 100 µM (inactive)
GI50 (EKVX): > 100 µM (inactive)
GI50 (M14): > 100 µM (inactive)
GI50 (MOLT-4): > 100 µM (inactive)

O=C1c2cccc(O)c2C(=O)c2c(OC3OC(CO)C(O)C(O)C3O)cccc21 (centres undefined)
GI50 (RPMI-8226): 23.9 µM (inactive)
GI50 (SNB-19): 33.7 µM (inactive)
GI50 (HCT-116): 19.8 µM (inactive)
GI50 (NCI-H460): 17.9 µM (inactive)
GI50 (SK-MEL-28): > 100 µM (inactive)
GI50 (PC-3): 24.5 µM (inactive)
GI50 (SR): 32.4 µM (inactive)
GI50 (OVCAR-3): 31.4 µM (inactive)
GI50 (RXF 393): 26 µM (inactive)
GI50 (HCT-15): 20.6 µM
GI50 (UACC-257): 19.5 µM (inactive)
GI50 (KM12): 30.3 µM (inactive)
GI50 (NCI-H23): 15.3 µM (inactive)
GI50 (SN12C): 24.7 µM (inactive)
GI50 (SF-539): 25.5 µM (inactive)
GI50 (EKVX): 32.7 µM (inactive)
GI50 (M14): 21.5 µM (inactive)

CC(=O)C(C(=O)c1ccc(C)cc1)[C@H]1OC(C)(C)O[C@H]1[C@H]1COC(C)(C)O1 (some centres undefined)
GI50 (RPMI-8226): 1.6 µM (inactive)
GI50 (SNB-19): 9.95 µM (inactive)
GI50 (HCT-116): 2.25 µM (inactive)
GI50 (NCI-H460): 7.05 µM (inactive)
GI50 (SK-MEL-28): 6.18 µM (inactive)
GI50 (PC-3): 2.55 µM (inactive)
GI50 (SR): 1.42 µM (inactive)
GI50 (RXF 393): 2.69 µM (inactive)
GI50 (HCT-15): 2.99 µM
GI50 (UACC-257): 5.31 µM (inactive)
GI50 (KM12): 8.75 µM (inactive)
GI50 (NCI-H23): 2.07 µM (inactive)
GI50 (SN12C): 1.9 µM (inactive)
GI50 (SF-539): 1.87 µM (inactive)
GI50 (EKVX): 5.32 µM (inactive)
GI50 (M14): 6.9 µM (inactive)
GI50 (MOLT-4): 1.66 µM (inactive)

Cc1ncc([N+](=O)[O-])n1CCNC(=O)Cn1c([N+](=O)[O-])cnc1C
GI50 (SNB-19): > 100 µM (inactive)
GI50 (HCT-116): > 100 µM (inactive)
GI50 (NCI-H460): > 100 µM (inactive)
GI50 (SK-MEL-28): > 100 µM (inactive)
GI50 (PC-3): > 100 µM (inactive)
GI50 (SR): > 100 µM (inactive)
GI50 (CCRF-CEM): > 100 µM (inactive)
GI50 (OVCAR-3): > 100 µM (inactive)
GI50 (HCT-15): > 100 µM
GI50 (UACC-257): > 100 µM (inactive)
GI50 (HL-60): > 100 µM (inactive)
GI50 (KM12): > 100 µM (inactive)
GI50 (NCI-H23): > 100 µM (inactive)
GI50 (SN12C): > 100 µM (inactive)
GI50 (SF-539): > 100 µM (inactive)
GI50 (M14): > 100 µM (inactive)
GI50 (MOLT-4): > 100 µM (inactive)

Clc1ncnc(Cl)c1Cl
GI50 (RPMI-8226): 4.41 µM (inactive)
GI50 (SNB-19): > 100 µM (inactive)
GI50 (HCT-116): > 100 µM (inactive)
GI50 (NCI-H460): > 100 µM (inactive)
GI50 (SK-MEL-28): > 100 µM (inactive)
GI50 (PC-3): > 100 µM (inactive)
GI50 (SR): > 100 µM (inactive)
GI50 (CCRF-CEM): > 100 µM (inactive)
GI50 (OVCAR-3): > 100 µM (inactive)
GI50 (RXF 393): > 100 µM (inactive)
GI50 (HCT-15): > 100 µM
GI50 (KM12): > 100 µM (inactive)
GI50 (NCI-H23): > 100 µM (inactive)
GI50 (SN12C): > 100 µM (inactive)
GI50 (SF-539): > 100 µM (inactive)
GI50 (M14): > 100 µM (inactive)
GI50 (MOLT-4): > 100 µM (inactive)

CN(C)/C=N/S(=O)(=O)c1nn2c(C=O)c(-c3ccccc3)nc2s1
GI50 (RPMI-8226): 3.43 µM (inactive)
GI50 (SNB-19): 36 µM (inactive)
GI50 (HCT-116): 3.26 µM (inactive)
GI50 (NCI-H460): 20.8 µM (inactive)
GI50 (SK-MEL-28): 9.2 µM (inactive)
GI50 (PC-3): 14.1 µM (inactive)
GI50 (SR): 5.74 µM (inactive)
GI50 (CCRF-CEM): 2.96 µM (inactive)
GI50 (OVCAR-3): 8.32 µM (inactive)
GI50 (RXF 393): 13 µM (inactive)
GI50 (HCT-15): 9.46 µM
GI50 (UACC-257): 24.2 µM (inactive)
GI50 (KM12): 22.6 µM (inactive)
GI50 (NCI-H23): 19.7 µM (inactive)
GI50 (SN12C): 13.5 µM (inactive)
GI50 (SF-539): 17.7 µM (inactive)
GI50 (EKVX): 30.5 µM (inactive)
GI50 (M14): 2.51 µM (inactive)
GI50 (MOLT-4): 3.21 µM (inactive)

Cc1c(-c2ccccc2)nn2cc(-c3ccccc3)nnc12
GI50 (RPMI-8226): 35.5 µM (inactive)
GI50 (SNB-19): 40.8 µM (inactive)
GI50 (HCT-116): 20.7 µM (inactive)
GI50 (NCI-H460): 16.9 µM (inactive)
GI50 (SK-MEL-28): 27.6 µM (inactive)
GI50 (PC-3): 19.6 µM (inactive)
GI50 (SR): 33.5 µM (inactive)
GI50 (CCRF-CEM): 27.4 µM (inactive)
GI50 (OVCAR-3): 32.7 µM (inactive)
GI50 (RXF 393): 18.2 µM (inactive)
GI50 (HCT-15): 14.7 µM
GI50 (UACC-257): 23.4 µM (inactive)
GI50 (KM12): 29 µM (inactive)
GI50 (NCI-H23): 31.9 µM (inactive)
GI50 (SN12C): 37.9 µM (inactive)
GI50 (M14): 22.6 µM (inactive)
GI50 (MOLT-4): 35.5 µM (inactive)

C/C=C\C(CC(=O)NCCc1c[nH]c2ccccc12)CC(=O)OC (centres undefined)
GI50 (RPMI-8226): > 100 µM (inactive)
GI50 (SNB-19): > 100 µM (inactive)
GI50 (HCT-116): > 100 µM (inactive)
GI50 (NCI-H460): > 100 µM (inactive)
GI50 (SK-MEL-28): > 100 µM (inactive)
GI50 (PC-3): > 100 µM (inactive)
GI50 (OVCAR-3): > 100 µM (inactive)
GI50 (RXF 393): > 100 µM (inactive)
GI50 (HCT-15): > 100 µM
GI50 (UACC-257): > 100 µM (inactive)
GI50 (KM12): > 100 µM (inactive)
GI50 (NCI-H23): > 100 µM (inactive)
GI50 (EKVX): > 100 µM (inactive)
GI50 (M14): > 100 µM (inactive)
GI50 (MOLT-4): > 100 µM (inactive)
